Reference: PubChem BioAssay (NCI)
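Cells were grown in 96-well plates and exposed to each compound for 48 hours at five concentrations; endpoints were interpolated linearly between bracketing concentrations, or set to the highest concentration if not reached. GI50 = concentration required for 50% inhibition of growth. The concentration for full growth arrest is given as TGI.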

Tests used:
Experiment in all cases: NCI anticancer screen, dose series, 48 h
ACHN renal = system: ACHN renal
BT-549 breast = system: BT-549 breast
CCRF-CEM leukemia = system: CCRF-CEM leukemia
HCT-116 colon = system: HCT-116 colon
KM12 colon = system: KM12 colon
M14 melanoma = system: M14 melanoma
MCF7 breast = system: MCF7 breast
NCI/ADR-RES ovarian = system: NCI/ADR-RES ovarian
OVCAR-4 ovarian = system: OVCAR-4 ovarian
SK-OV-3 ovarian = system: SK-OV-3 ovarian

| SMILES | GI50 (ACHN renal) | TGI (ACHN renal) | GI50 (BT-549 breast) | TGI (BT-549 breast) | GI50 (CCRF-CEM leukemia) | TGI (CCRF-CEM leukemia) | GI50 (HCT-116 colon) | TGI (HCT-116 colon) | GI50 (KM12 colon) | TGI (KM12 colon) | GI50 (M14 melanoma) | TGI (M14 melanoma) | GI50 (MCF7 breast) | TGI (MCF7 breast) | GI50 (NCI/ADR-RES ovarian) | TGI (NCI/ADR-RES ovarian) | GI50 (OVCAR-4 ovarian) | TGI (OVCAR-4 ovarian) | GI50 (SK-OV-3 ovarian) | TGI (SK-OV-3 ovarian) |
| --- | --- | --- | --- | --- | --- | --- | --- | --- | --- | --- | --- | --- | --- | --- | --- | --- | --- | --- | --- | --- |
| Nc1n[nH]c(N)c1N=Nc1ccc(O)cc1 | 15.6 µM | 61.1 µM | 14 µM | 63.5 µM | 20 µM | 63 µM | 18.9 µM | 89.9 µM | 17.2 µM | 74.1 µM | 15.9 µM | > 100 µM | 23.5 µM | 90.8 µM | 22.6 µM | 92.4 µM | 19 µM | 74.7 µM | 49.2 µM | > 100 µM |
| COc1ccc(Oc2ccccc2NC(=O)CNC(=O)c2cccc3ccccc23)cc1 | 1.53 µM | > 25 µM | 1.12 µM | > 25 µM | 0.904 µM | > 25 µM | 0.61 µM | > 25 µM | 0.577 µM | > 25 µM | 0.545 µM | > 25 µM | 0.259 µM | > 25 µM | 0.427 µM | > 25 µM | 2.26 µM | > 25 µM | 1.02 µM | > 25 µM |
| N/C(=N\c1nc2ccccc2s1)NC(=NC1CCCCC1)NC1CCCCC1 | 1.6 µM | 2.96 µM | 1.65 µM | 3.22 µM | 2.46 µM | 9.28 µM | 1.43 µM | 3.01 µM | 1.94 µM | 3.78 µM | 1.63 µM | 3.31 µM | 1.46 µM | 2.83 µM | 1.64 µM | 3.3 µM | 1.63 µM | 3.29 µM | 1.84 µM | 3.53 µM |
| COc1cccc(C2C(C#N)=C(N)Oc3c2ccc2ccccc32)c1 (centres undefined) | < 0.01 µM | 13.4 µM | 0.029 µM | 12.1 µM | 0.0353 µM | 18.2 µM | < 0.0128 µM | 3.42 µM | < 0.0116 µM | 2.26 µM | < 0.012 µM | 13.3 µM | < 0.01 µM | 12.8 µM | < 0.01 µM | 0.391 µM | – | 18.6 µM | 0.0431 µM | 18.3 µM |
